Data on 28 compounds can be found in patent US11512089B2, “Substituted [1,2,4]triazolo[3,4-a]phthalazines as modulators of GABAA receptor activity” (SHANGHAI SIMR BIOTECHNOLOGY CO., LTD, priority 2018, dated 2022).

SMILES strings stand for the structures. ≈ marks a conversion by molar mass, not a printed value.

Test system in the first data set: not listed separately
Put plainly: Kinetic solubility in 50 mM phosphate buffer pH 7.4. In kind it is physicochemical. To be noted: aqueous buffer, kinetic from dmso stock, 50 mM phosphate buffer pH 7.4, 2% DMSO, room temperature. The procedure:
50 mM phosphate buffer pH=7.4: 0.39 g of NaH2PO4.2H2O, and 1.4025 g of Na2HPO4 were weighted and placed in an erlenmeyer flask, 240 mL of water was added. The solid was dissolved and mixed thoroughly, the pH value was adjusted to 7.4 with 10M NaOH solution, and the resulting solution was transferred to a 250 mL volumetric flask, followed by adding water to the mark.
Waters e2695 HPLC high performance liquid chromatography, Mettler XSE105 analytical balance.
Firstly, a 10 mM stock solution with DMSO as the solvent was prepared, and was diluted with a diluent (ACN: PB buffer 50:50) into 1 μM-200 μM as standard solution.
Kinetic solubility. 30 μL of the stock solution was placed in a 2 mL centrifuge tube, 1470 μL of 50 mM phosphate buffer (pH 7.4) (containing DMSO at a final concentration of 2%) was added. The mixture was shaken at room temperature (1000 rpm/min) for 24 hours, and then filtered. The filtrate was tested by high performance liquid chromatography (UV).
Broadly, the solubility (kinetic) is solubility judged after dilution from a stock solution rather than from solid. On to `COCc1cc(-c2nnc3c4ccccc4c(OCc4ccc(C(=O)NC5CCOCC5)cn4)nn23)no1` [Compound 04, 6-[3-(5-methoxymethyl-isoxazol-3-yl)-[1,2,4]triazolo[3,4-a]phthalazin-6-yloxymethyl]-N-(tetrahydro-pyran-4-yl)-nicotinamide], for which the solubility (kinetic) at 24 h came to 13.1 µg/mL (≈ 25.5 µM).

`COCc1cc(-c2nnc3c4ccccc4c(OCc4ccc(C(=O)N[C@H](C)COC)cn4)nn23)no1` [Compound 09, (R)—N-(2-methoxy-1-methyl-ethyl)-6-[3-(5-methoxymethyl-isoxazol-3-yl)-[1,2,4]triazolo[3,4-a]phthalazin-6-yloxymethyl]-nicotinamide] returned a kinetic solubility at 24 h of 27.7 µg/mL (≈ 55 µM). Against the preceding compound, the solubility kinetic at 24 h is about 2.1-fold higher.

For `COCc1cc(-c2nnc3c4ccccc4c(OCc4ccc(C(=O)NCCOC(F)(F)F)cn4)nn23)no1` [Compound 13, 6-[3-(5-methoxymethyl-isoxazol-3-yl)-[1,2,4]triazolo[3,4-a]phthalazin-6-yloxymethyl]-N-(2-trifluoromethoxy-ethyl)-nicotinamide], the kinetic solubility at 24 h was found to be 0.57 µg/mL (≈ 1.05 µM).

`COCc1cc(-c2nnc3c4ccccc4c(OCc4ccc(C(=O)NC(C)(C)COC)cn4)nn23)no1` [Compound 14, N-(2-methoxy-1,1-dimethyl-ethyl)-6-[3-(5-methoxymethyl-isoxazol-3-yl)-[1,2,4]triazolo[3,4-a]phthalazin 6-yloxymethyl]-nicotinamide] came in with a kinetic solubility at 24 h of 35.7 µg/mL (≈ 68.9 µM).

Regarding `COCc1cc(-c2nnc3c4ccccc4c(OCc4ccc(C(=O)NCCO)cn4)nn23)no1` [Compound 16, N-(2-hydroxy-ethyl)-6-[3-(5-methoxymethyl-isoxazol-3-yl)-[1,2,4]triazolo[3,4-a]phthalazin-6-yloxymethyl]-nicotinamide], the solubility (kinetic) at 24 h was determined as 49.4 µg/mL (≈ 104 µM).

Consider `COCc1cc(-c2nnc3c4ccccc4c(OCc4ccc(C(=O)NC5(C#N)CC5)cn4)nn23)no1` [Compound 19], for which the kinetic solubility at 24 h is 1.06 µg/mL (≈ 2.14 µM).

On to `COCc1cc(-c2nnc3c4ccccc4c(OCc4ccc(C(=O)NC5CC(F)C5)cn4)nn23)no1` (stereo not shown) [Compound 21], for which the solubility (kinetic) at 24 h worked out at 1.18 µg/mL (≈ 2.34 µM).

In turn, `COCc1cc(-c2nnc3c4ccccc4c(OCc4ccc(C(=O)NCCF)cn4)nn23)no1` [Compound 22] yielded a solubility (kinetic) at 24 h of 8.92 µg/mL (≈ 18.7 µM).

Compound `COCc1cc(-c2nnc3c4ccccc4c(OCc4ccc(C(=O)NCC(F)(F)CO)cn4)nn23)no1` [Compound 25] returned a solubility (kinetic) at 24 h of 2.71 µg/mL (≈ 5.16 µM). This solubility kinetic at 24 h is about 3.3-fold lower than that of the compound before.

The compound `COCc1cc(-c2nnc3c4ccccc4c(OCc4ccc(C(=O)NC5CCOC5)cn4)nn23)no1` (stereo not shown) [Compound 26, 6-[3-(5-methoxymethyl-isoxazol-3-yl)-[1,2,4]triazolo[3,4-a]phthalazin-6-yloxymethyl]-N-(tetrahydrofuran-3-yl)-nicotinamide] displayed a solubility (kinetic) at 24 h of 20.3 µg/mL (≈ 40.6 µM).

As for `COCc1cc(-c2nnc3c4ccccc4c(OCc4ccc(C(=O)NC(C)C(F)(F)F)cn4)nn23)no1` (stereo not shown) [Compound 27], the kinetic solubility at 24 h worked out at 5.58 µg/mL (≈ 10.6 µM).

For the compound `COCc1cc(-c2nnc3c4ccccc4c(OCc4ccc(C(=O)NC5CCC(F)(F)CC5)cn4)nn23)no1` [Compound 33], the kinetic solubility at 24 h came out at 2.99 µg/mL (≈ 5.44 µM). Compared with the last compound, the solubility kinetic at 24 h is about 1.9-fold lower.

As for `COCc1cc(-c2nnc3c4ccccc4c(OCc4ccc(C(=O)NC5CCC(F)(F)C5)cn4)nn23)no1` (stereo not shown) [Compound 35], the solubility (kinetic) at 24 h is 5.62 µg/mL (≈ 10.5 µM).

The compound `COCc1cc(-c2nnc3c4ccccc4c(OCc4ccc(C(N)=O)cn4)nn23)no1` [Compound 36] came in with a kinetic solubility at 24 h of 0.8 µg/mL (≈ 1.85 µM).

With `COCc1cc(-c2nnc3c4ccccc4c(OCc4ccc(C(=O)N5CC(O)C5)cn4)nn23)no1` [Compound 41], the kinetic solubility at 24 h is 6.57 µg/mL (≈ 13.5 µM).

`COCc1cc(-c2nnc3c4ccccc4c(OCc4ccc(C(=O)N5CC(C)OC(C)C5)cn4)nn23)no1` (stereo not shown) [Compound 44]: the kinetic solubility at 24 h was 74.6 µg/mL (≈ 141 µM). Against the preceding compound, the solubility kinetic at 24 h is about 11-fold higher.

`COCc1cc(-c2nnc3c4ccccc4c(OCc4ccc(C(=O)N(C)C5CC5)cn4)nn23)no1` [Compound 50] gave a solubility (kinetic) at 24 h of 3.75 µg/mL (≈ 7.72 µM).

In turn, `COCc1cc(-c2nnc3c4ccccc4c(OCc4ccc(C(=O)N5CCC(F)(F)C5)cn4)nn23)no1` [Compound 51] returned a solubility (kinetic) at 24 h of 5.62 µg/mL (≈ 10.8 µM).

In turn, `COCCN(CCOC)C(=O)c1ccc(COc2nn3c(-c4cc(COC)on4)nnc3c3ccccc23)nc1` [Compound 52] showed a solubility (kinetic) at 24 h of 51.9 µg/mL (≈ 94.7 µM).

With `COCc1cc(-c2nnc3c4ccccc4c(OCc4ccc(C(=O)N5CCN(C)C(=O)C5)cn4)nn23)no1` [Compound 53], the solubility (kinetic) at 24 h amounted to 28 µg/mL (≈ 53 µM). Compared with the last compound, the solubility kinetic at 24 h is about 1.9-fold lower.

`COCc1cc(-c2nnc3c4ccccc4c(OCc4ccc(C(=O)N5CCCOCC5)cn4)nn23)no1` [Compound 55]: the kinetic solubility at 24 h came to 102 µg/mL (≈ 197 µM). This solubility kinetic at 24 h lies about 3.6-fold higher than the previous one.

As for `COCc1cc(-c2nnc3c4ccccc4c(OCc4ccc(C(=O)N5CCC(OC)CC5)cn4)nn23)no1` [Compound 57, (6-(((3-(5-(methoxymethyl)isoxazol-3-yl)-[1,2,4]triazolo[3,4-a]phthalazin-6-yl)oxy)methyl)pyridin-3-yl)(4-methoxypiperidin-1-yl)methanone], the solubility (kinetic) at 24 h came to 26.5 µg/mL (≈ 50 µM).

Take `COCc1cc(-c2nnc3c4ccccc4c(OCc4ccc(C(=O)N(C)CC(F)(F)F)cn4)nn23)no1` [Compound 58]: the solubility (kinetic) at 24 h is 1.46 µg/mL (≈ 2.77 µM).

For `Cc1cc(-c2nnc3c4ccccc4c(OCc4ccc(C(=O)NC5CCOCC5)cn4)nn23)no1` [reference compound], the solubility (kinetic) at 24 h amounted to 3.88 µg/mL (≈ 7.99 µM).

A further data set deals with T1, α5-GABAA receptor (Homo sapiens, UniProt P18507+P31644).
T1 construct: expressed in transfected cells; host or cells: HEK-293 (monoclonal, stably transfected)
T1 sequence (P31644 32-462): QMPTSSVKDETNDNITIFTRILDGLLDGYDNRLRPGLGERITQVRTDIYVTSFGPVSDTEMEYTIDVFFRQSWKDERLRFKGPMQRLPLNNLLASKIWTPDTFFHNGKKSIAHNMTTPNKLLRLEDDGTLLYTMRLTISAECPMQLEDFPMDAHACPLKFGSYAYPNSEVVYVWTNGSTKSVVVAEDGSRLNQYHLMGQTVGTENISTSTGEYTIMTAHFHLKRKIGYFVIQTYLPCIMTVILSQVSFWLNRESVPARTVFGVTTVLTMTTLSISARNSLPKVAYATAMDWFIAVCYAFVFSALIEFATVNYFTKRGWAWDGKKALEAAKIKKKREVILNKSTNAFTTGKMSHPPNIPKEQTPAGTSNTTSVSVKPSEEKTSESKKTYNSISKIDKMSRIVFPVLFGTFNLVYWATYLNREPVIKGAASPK
T1 sequence (P28472 26-473 partner): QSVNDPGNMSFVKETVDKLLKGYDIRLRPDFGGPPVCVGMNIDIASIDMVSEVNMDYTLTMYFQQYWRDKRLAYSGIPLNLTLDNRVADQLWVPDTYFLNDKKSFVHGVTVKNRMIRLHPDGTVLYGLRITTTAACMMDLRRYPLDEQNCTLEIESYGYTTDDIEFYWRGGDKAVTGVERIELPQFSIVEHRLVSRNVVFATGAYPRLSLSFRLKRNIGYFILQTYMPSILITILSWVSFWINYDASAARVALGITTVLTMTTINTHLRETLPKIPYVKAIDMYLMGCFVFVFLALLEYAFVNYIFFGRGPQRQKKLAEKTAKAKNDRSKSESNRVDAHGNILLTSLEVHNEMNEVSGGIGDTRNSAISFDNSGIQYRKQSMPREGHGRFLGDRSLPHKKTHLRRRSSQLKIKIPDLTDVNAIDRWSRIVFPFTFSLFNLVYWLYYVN
T1 sequence (P18507 40-467 isoform P18507-1 limits assumed): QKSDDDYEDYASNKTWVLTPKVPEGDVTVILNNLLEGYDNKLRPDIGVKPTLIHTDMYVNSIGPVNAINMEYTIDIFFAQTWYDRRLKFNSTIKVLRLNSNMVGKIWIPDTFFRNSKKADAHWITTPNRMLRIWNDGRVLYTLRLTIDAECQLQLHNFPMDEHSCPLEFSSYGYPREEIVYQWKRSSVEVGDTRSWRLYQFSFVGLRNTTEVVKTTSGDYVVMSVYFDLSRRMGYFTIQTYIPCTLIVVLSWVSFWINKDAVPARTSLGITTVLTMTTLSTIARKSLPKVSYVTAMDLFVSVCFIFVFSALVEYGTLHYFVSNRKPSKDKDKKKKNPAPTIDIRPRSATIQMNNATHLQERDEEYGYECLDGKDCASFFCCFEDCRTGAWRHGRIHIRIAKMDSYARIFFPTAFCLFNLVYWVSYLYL
Description: Whole cell patch clamp, inverse agonism efficacy on GABA-induced current in HEK-293 cells expressing α5-GABAA receptor. In kind it is cell-based. To be noted: HEK293; compound 100 nM, GABA 0.05 μM; ratio to reference compound Example 7 in CN106854207A in the same batch. The protocol:
The inventors used electrophysiological methods to determine the inverse agonist efficacy of the substances to be tested. The detailed procedures are as follows:
(1) Different subunits of GABAA receptors were expressed in human embryonic kidney cells 293 (HEK293). The cells were cultured in a culture medium and used as a cell model for screening potential analgesics. The α, β and γ subunits are necessary to form complete functional GABAA receptors. In this example, the inventors have established the following cell model: (a) α5 subunit (protein sequence is GenBank accession number: NM_000810.3), (33 subunit (protein sequence is GenBank accession number: NM_000814.5) and γ2 subunit (protein sequence is GenBank accession number: NM_000816.3) were expressed in HEK-293 cell line at the same time, followed by screening the monoclonal cell line. This cell line contained α5-GABAA receptor and had complete GABAA receptor function.
(2) The monoclonal stably transfected HEK-293 cells expressing α5-GABAA receptor were cultured in 10 cm culture dishes. The cells were passaged after reaching 80-90% confluence. During passaging, the culture medium was removed and discarded, 3 mL of DPBS (phosphate buffered saline, Gibco™) was added to the dishes, the dishes were shaken slightly, and DPBS was removed and discarded. 1 mL of trypsin (TrypLE Express, Gibco™) was added and the cells were digested at 37° C. for 1-2 minutes. Then 3 mL of complete medium (DMEM+10% FBS (Gibco™)) was added and the cells at the bottom of the culture dishes were dispersed. The cell suspension were transferred to a 15 mL centrifugal tube (Corning™) and then centrifuged at 200 g for 3 minutes. The supernatant was discarded, 4 mL of complete medium was added, and the cells were resuspended by gently blowing. The cell suspension was diluted by 1:5 or 1:10 for subculturing. The cell suspension was diluted by 1:12 for electrophysiology experiment, and added to a 24 well plate (Corning™) with a glass slide pre-treated with poly-D-lysine placed thereon; the experiment was initiated after the cells were adhered to the slide. The cells for electrophysiology experiment were maintained in culture for no more than 48 hours before use.
(3) Compound concentration: for screening, all compounds were diluted to a final concentration of 100 nM and the concentration of GABA was 0.05 μM. The compounds were at the concentration of 0.3 nM, 3 nM, 10 nM, 30 nM, 100 nM and 300 nM in dose-inverse agonism efficacy (%) experiment. The whole cell patch clamp technique was used in electrophysiology experiments, which can refer to the literature (I. Lecker, Y. Yin, D. S. Wang and B. A. Orser, (2013) Potentiation of GABAA receptor activity by volatile anaesthetics is reduced by α5-GABAA receptor-preferring inverse agonists, British Journal of Anaesthesia 110 (S1): i73-i81). The extracellular solution (ECS) contained: 150 mM NaCl, 5 mM KCl, 2.5 mM CaCl2, 1 mM MgCl2, 10 mM HEPES and 10 mM glucose (pH 7.4); Patch electrodes were filled with an intracellular solution containing: 140 mM CsCl, 11 mM EGTA, 10 mM HEPES, 2 mM CaCl2, 1 mM MgCl2, 4 mM MgATP, 2 mM TEA (pH 7.3). The currents were recorded by an EPC-10 amplifier and the PatchMaster software (HEKA). Patch electrodes with a resistance of 4-6 MΩ were pulled from borosilicate glass. The ALA-VC3-8PP™ system was used for extracellular administration. Separate cells that grew independently was selected for recording. During recording, the membrane voltage was clamped at −60 mV. During experiment, the cells were firstly perfused with ECS for 20 seconds. When the baseline reached to a stable state, the cells were then perfused with GABA solution. Then the current induced by GABA could be detected. After about 20 to 40 seconds, the current was stable. ECS was switched to compounds solution and the effects of the compounds were detected. At last, the perfusion solution was switched to ECS. […]
(In patch-clamp work, channel activity is measured electrically.)
What is called Emax is the size of the effect at its maximum, as opposed to the concentration needed. On to `COCc1cc(-c2nnc3c4ccccc4c(OCc4ccc(C(=O)NC5CC(F)(F)C5)cn4)nn23)no1` [Compound 03, N-(3,3-difluoro-cyclobutyl)-6-[3-(5-methoxymethyl-isoxazol-3-yl)-[1,2,4]triazolo[3,4-a]phthalazin-6-yloxymethyl]-nicotinamide], for which the Emax at 0.1 µM was 92.1%.

With `COCCCNC(=O)c1ccc(COc2nn3c(-c4cc(COC)on4)nnc3c3ccccc23)nc1` [Compound 08, 6-[3-(5-methoxymethyl-isoxazol-3-yl)-[1,2,4]triazolo[3,4-a]phthalazin-6-yloxymethyl]-N-(3-methoxy-propyl)-nicotinamide], the Emax at 0.1 µM was 110%.

Consider `COCc1cc(-c2nnc3c4ccccc4c(OCc4ccc(C(=O)NC5COC5)cn4)nn23)no1` [Compound 17, 6-[3-(5-methoxymethyl-isoxazol-3-yl)-[1,2,4]triazolo[3,4-a]phthalazin-6-yloxymethyl]-N-oxetan-3-yl-nicotinamide], for which the Emax at 0.1 µM came to 105%.

For the compound `COCc1cc(-c2nnc3c4ccccc4c(OCc4ccc(C(=O)N5CC(F)(F)C5)cn4)nn23)no1` [Compound 46, (3,3-difluoroazetidin-1-yl)(6-(((3-(5-(methoxymethyl)isoxazol-3-yl)[1,2,4]triazolo[3,4-a]phthalazin-6-yl)oxy)methyl)pyridin-3-yl)methanone], the Emax at 0.1 µM amounted to 94.6%.
